This note sets out measurements from patent US8481750B2 (Boehringer Ingelheim International GmbH, priority 2009, dated 2013).

Molecules are shown by their SMILES.

For this experiment, the target named is LFA-1 binding to ICAM-1 (Homo sapiens, UniProt P05107+P20701). In words: Inhibition of LFA-1 binding to ICAM-1 (LFA-1/Biotin-sICAM-1 AlphaScreen molecular assay). The note with it: highest compound concentration 1 μM in 1% DMSO, 37° C., 90 minutes. The text has this: Assay to Determine Inhibition of LFA-1 Binding to ICAM-1
Chain of LFA-1 binding to ICAM-1 (P20701 26-1170): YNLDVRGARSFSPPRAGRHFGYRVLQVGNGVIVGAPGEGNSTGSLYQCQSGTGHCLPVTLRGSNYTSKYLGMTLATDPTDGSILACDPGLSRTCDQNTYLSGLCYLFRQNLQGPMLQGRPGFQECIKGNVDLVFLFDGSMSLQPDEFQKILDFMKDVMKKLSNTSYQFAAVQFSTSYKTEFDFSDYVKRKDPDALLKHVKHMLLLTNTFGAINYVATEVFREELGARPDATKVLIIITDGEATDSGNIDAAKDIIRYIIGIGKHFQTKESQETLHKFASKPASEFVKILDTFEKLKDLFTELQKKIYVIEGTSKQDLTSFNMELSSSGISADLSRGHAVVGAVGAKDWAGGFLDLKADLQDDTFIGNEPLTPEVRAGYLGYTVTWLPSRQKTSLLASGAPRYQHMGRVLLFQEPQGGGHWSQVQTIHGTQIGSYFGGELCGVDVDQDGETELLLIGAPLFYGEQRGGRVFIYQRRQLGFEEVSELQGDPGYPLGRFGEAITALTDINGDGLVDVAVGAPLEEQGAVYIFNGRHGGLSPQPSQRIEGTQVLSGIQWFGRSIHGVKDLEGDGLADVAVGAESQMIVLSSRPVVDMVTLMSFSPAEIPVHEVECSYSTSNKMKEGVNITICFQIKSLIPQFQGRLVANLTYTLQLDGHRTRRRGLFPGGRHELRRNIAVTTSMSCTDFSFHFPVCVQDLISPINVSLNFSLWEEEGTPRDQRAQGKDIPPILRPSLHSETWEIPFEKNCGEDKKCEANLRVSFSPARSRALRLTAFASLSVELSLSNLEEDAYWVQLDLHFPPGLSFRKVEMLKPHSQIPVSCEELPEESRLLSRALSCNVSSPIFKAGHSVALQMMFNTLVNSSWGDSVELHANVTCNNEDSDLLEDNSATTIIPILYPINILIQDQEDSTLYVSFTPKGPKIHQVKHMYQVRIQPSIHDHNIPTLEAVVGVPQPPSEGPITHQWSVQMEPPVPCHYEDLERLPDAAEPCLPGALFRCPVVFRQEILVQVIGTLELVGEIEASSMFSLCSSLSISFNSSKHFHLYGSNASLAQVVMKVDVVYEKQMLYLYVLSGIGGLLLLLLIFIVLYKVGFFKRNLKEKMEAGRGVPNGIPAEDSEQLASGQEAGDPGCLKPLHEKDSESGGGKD
Chain of LFA-1 binding to ICAM-1 (P05107 23-769): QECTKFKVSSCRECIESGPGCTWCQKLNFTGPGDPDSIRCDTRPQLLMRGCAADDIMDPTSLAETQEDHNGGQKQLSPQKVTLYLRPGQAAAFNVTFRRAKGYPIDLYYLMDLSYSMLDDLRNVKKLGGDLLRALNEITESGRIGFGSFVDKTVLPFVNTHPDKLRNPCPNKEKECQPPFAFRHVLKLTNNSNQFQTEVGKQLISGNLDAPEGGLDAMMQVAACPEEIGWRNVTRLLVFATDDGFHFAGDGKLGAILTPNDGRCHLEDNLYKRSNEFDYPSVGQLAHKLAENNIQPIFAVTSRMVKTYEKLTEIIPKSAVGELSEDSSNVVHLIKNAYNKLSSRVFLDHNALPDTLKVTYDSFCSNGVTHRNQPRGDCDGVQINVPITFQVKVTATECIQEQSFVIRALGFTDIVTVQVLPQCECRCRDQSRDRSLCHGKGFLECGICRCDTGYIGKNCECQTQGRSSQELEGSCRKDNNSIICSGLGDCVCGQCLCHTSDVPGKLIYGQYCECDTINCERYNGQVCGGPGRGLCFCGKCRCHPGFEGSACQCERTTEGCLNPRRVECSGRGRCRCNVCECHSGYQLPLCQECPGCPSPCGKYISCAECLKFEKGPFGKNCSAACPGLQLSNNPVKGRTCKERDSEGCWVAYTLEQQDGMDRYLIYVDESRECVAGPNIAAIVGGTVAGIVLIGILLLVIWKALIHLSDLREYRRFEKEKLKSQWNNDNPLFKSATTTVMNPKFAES
This assay protocol is designed to study the direct antagonism, by a test compound, of the interaction of ICAM-1 with the Leukointegrin CD18/CD11a (LFA-1).
The LFA-1/Biotin-sICAM-1 molecular assay measures the ability of test compounds to inhibit binding of LFA-1 to Biotinylated-sICAM using AlphaScreen technology (Ref: Wilson, J, Rossi, C P, Carboni, S, Fremaux, C, Perrin, D, Soto, C, Kosco-Vilbois, M, and Scheer, A: A Homogeneous 384-Well High-Throughput Binding Assay for a TNF Receptor Using Alphascreen Technology. J Biomol Screen 2003; 8:522-532) that uses TS2/4(anti-LFA-1)-custom conjugated AlphaLisa acceptor beads and streptavidin-coated donor beads from PerkinElmer. The assay was performed in white OptiPlates-384 in a volume of 60 μL using assay buffer (Dulbecco's PBS containing calcium and magnesium, 2 mM MgCl2, 0.1 mM PMSF, 0.1% BSA, pH 7.1). To each well, Biotin-sICAM was added followed by purified LFA-1 (in buffer of 50 mM triethylamine, 150 mM NaCl, 1% beta octylglucoside, 2 mM MgCl2 neutralized to pH with 1M Tris-HCl, pH 7.5). For compound testing, compound was added in 5 uL to the above in 25 uL. LFA-1 and Biotin-sICAM-1 were used at concentrations that would yield a signal to background ratio of 8-10. The highest concentration of compound was 1 μM in 1% DMSO. Positive controls were wells without compound containing LFA-1, while blanks were wells without both compound and LFA-1. Plates were mixed and incubated at 37° C. for 90 minutes. This was followed by addition of 15 μL/well TS2/4-congugated acceptor beads diluted in PBS containing 0.1% BSA for a final concentration of 10 μg/mL. The plates were mixed and incubated in the dark for 30 minutes at room temperature followed by addition of 15 μL/well streptavidin-coated donor beads diluted in PBS containing 0.1% BSA at a final concentration of 15 μg/mL. The plates were mixed and incubated in the dark for 60 minutes at room temperature and then read on an EnVision Multilabel Reader using AlphaScreen 384-well OptiPlate protocol.
A general note: Bead proximity is the source of the signal in Alpha formats.
In general, IC50 refers to the concentration at which inhibition is half-maximal. A higher IC50 goes with weaker potency in that assay. For `CN(C)C1CCN(C(=O)c2ccnc(C3(NC(=O)C4(NC(=O)c5cnc6n5[C@](C)(Cc5ccc(C#N)cc5)C(=O)N6c5cc(Cl)cc(Cl)c5)CC4)CC3)c2)C1` (stereo partly drawn) [Compound 1], the IC50 was found to be 1.4 nM. On to `C[C@@]1(Cc2ccc(C#N)cc2)C(=O)N(c2cc(Cl)cc(Cl)c2)c2ncc(C(=O)NC3(C(=O)NC4(c5ccc(C(=O)NCc6ccco6)cn5)CC4)CC3)n21` [compound 3], for which the IC50 worked out at 0.29 nM. Then `C[C@@]1(Cc2ccc(C#N)cc2)C(=O)N(c2cc(Cl)cc(Cl)c2)c2ncc(C(=O)NC3(C(=O)NC4(c5cc(C(=O)NCCO)ccn5)CC4)CC3)n21` [compound 4], with 0.92 nM; and `C[C@@]1(Cc2ccc(C#N)cc2)C(=O)N(c2cc(Cl)cc(Cl)c2)c2ncc(C(=O)NC3(C(=O)NC4(c5ccc(C(=O)N6CC[C@@H](O)C6)cn5)CC4)CC3)n21` [compound 5], with 0.59 nM; and `C[C@@]1(Cc2ccc(C#N)cc2)C(=O)N(c2cc(Cl)cc(Cl)c2)c2ncc(C(=O)NC3(C(=O)NC4(c5cc(C(=O)NCCc6ccccn6)ccn5)CC4)CC3)n21` [compound 6], with 0.82 nM. Then `C[C@@]1(Cc2ccc(C#N)cc2)C(=O)N(c2cc(Cl)cc(Cl)c2)c2ncc(C(=O)NC3(C(=O)NC4(c5cc(C(=O)N6CCC(CO)CC6)ccn5)CC4)CC3)n21` [compound 7], with 1.4 nM; and `C[C@@]1(Cc2ccc(C#N)cc2)C(=O)N(c2cc(Cl)cc(Cl)c2)c2ncc(C(=O)NC3(C(=O)NC4(c5ccc(C(=O)N6CCC[C@H]6C(N)=O)cn5)CC4)CC3)n21` [compound 8], with 1.6 nM; and `C[C@@]1(Cc2ccc(C#N)cc2)C(=O)N(c2cc(Cl)cc(Cl)c2)c2ncc(C(=O)NC3(C(=O)NC4(c5ccc(C(=O)N6CCCCC6)cn5)CC4)CC3)n21` [compound 9], with 1.8 nM. Regarding `C[C@H](NC(=O)c1ccnc(C2(NC(=O)C3(NC(=O)c4cnc5n4[C@](C)(Cc4ccc(C#N)cc4)C(=O)N5c4cc(Cl)cc(Cl)c4)CC3)CC2)c1)c1ccccc1` [compound 10], the IC50 was found to be 6.2 nM. Then `C[C@@]1(Cc2ccc(C#N)cc2)C(=O)N(c2cc(Cl)cc(Cl)c2)c2ncc(C(=O)NC3(C(=O)NC4(c5cccc(C(=O)N6CCCC6)n5)CC4)CC3)n21` [compound 11], with 3.4 nM.

In turn, `CC(NC(=O)c1cccc(C2(NC(=O)C3(NC(=O)c4cnc5n4[C@](C)(Cc4ccc(C#N)cc4)C(=O)N5c4cc(Cl)cc(Cl)c4)CC3)CC2)n1)c1ccccn1` (stereo partly drawn) [compound 12] yielded an IC50 of 8.5 nM. `C[C@@]1(Cc2ccc(C#N)cc2)C(=O)N(c2cc(Cl)cc(Cl)c2)c2ncc(C(=O)NC3(C(=O)NC4(c5ccc(C(=O)NCC6CC6)cn5)CC4)CC3)n21` [compound 13]: the IC50 is 0.44 nM. To `C[C@@]1(Cc2ccc(C#N)cc2)C(=O)N(c2cc(Cl)cc(Cl)c2)c2ncc(C(=O)NC3(C(=O)NC4(c5ccc(C(=O)NCC(N)=O)cn5)CC4)CC3)n21` [compound 14] belongs 0.27 nM; to `CC(=O)NC1CCN(C(=O)c2cccc(C3(NC(=O)C4(NC(=O)c5cnc6n5[C@](C)(Cc5ccc(C#N)cc5)C(=O)N6c5cc(Cl)cc(Cl)c5)CC4)CC3)n2)C1` (stereo partly drawn) [compound 15], 1.5 nM. Then `C[C@@]1(Cc2ccc(C#N)cc2)C(=O)N(c2cc(Cl)cc(Cl)c2)c2ncc(C(=O)NC3(C(=O)NC4(c5cccc(C(=O)N6CCCCC6)n5)CC4)CC3)n21` [compound 16], with 12 nM. On to `C[C@@H](CO)NC(=O)c1ccnc(C2(NC(=O)C3(NC(=O)c4cnc5n4[C@](C)(Cc4ccc(C#N)cc4)C(=O)N5c4cc(Cl)cc(Cl)c4)CC3)CC2)c1` [compound 17], for which the IC50 was determined as 0.18 nM.

In turn, `C[C@@]1(Cc2ccc(C#N)cc2)C(=O)N(c2cc(Cl)cc(Cl)c2)c2ncc(C(=O)NC3(C(=O)NC4(c5cccc(C(=O)N6CCC(CO)CC6)n5)CC4)CC3)n21` [compound 18] yielded an IC50 of 1.8 nM.

Turning to `CN(CCO)C(=O)c1cccc(C2(NC(=O)C3(NC(=O)c4cnc5n4[C@](C)(Cc4ccc(C#N)cc4)C(=O)N5c4cc(Cl)cc(Cl)c4)CC3)CC2)n1` [compound 20], the half-maximal inhibitory concentration (IC50) was 1 nM. Then `C[C@@]1(Cc2ccc(C#N)cc2)C(=O)N(c2cc(Cl)cc(Cl)c2)c2ncc(C(=O)NC3(C(=O)NC4(c5ccc(C(=O)NCc6cccnc6)cn5)CC4)CC3)n21` [compound 21], with 0.81 nM; and `CC(=O)N1CCN(C(=O)c2cccc(C3(NC(=O)C4(NC(=O)c5cnc6n5[C@](C)(Cc5ccc(C#N)cc5)C(=O)N6c5cc(Cl)cc(Cl)c5)CC4)CC3)n2)CC1` [compound 22], with 2.1 nM. To `C[C@@]1(Cc2ccc(C#N)cc2)C(=O)N(c2cc(Cl)cc(Cl)c2)c2ncc(C(=O)NC3(C(=O)NC4(c5cccc(C(=O)N6CCCC(C(N)=O)C6)n5)CC4)CC3)n21` (stereo partly drawn) [compound 23] belongs 2.6 nM; to `C[C@@]1(Cc2ccc(C#N)cc2)C(=O)N(c2cc(Cl)cc(Cl)c2)c2ncc(C(=O)NC3(C(=O)NC4(c5cc(C(=O)NCc6ccccc6)ccn5)CC4)CC3)n21` [compound 24], 4.1 nM; to `C[C@@]1(Cc2ccc(C#N)cc2)C(=O)N(c2cc(Cl)cc(Cl)c2)c2ncc(C(=O)NC3(C(=O)NC4(c5cccc(C(=O)NCc6ccccc6)n5)CC4)CC3)n21` [compound 25], 32 nM. Then `C[C@@]1(Cc2ccc(C#N)cc2)C(=O)N(c2cc(Cl)cc(Cl)c2)c2ncc(C(=O)NC3(C(=O)NC4(c5cccc(C(=O)NCc6ccncc6)n5)CC4)CC3)n21` [compound 26], with 5.2 nM; and `CC(CO)NC(=O)c1ccc(C2(NC(=O)C3(NC(=O)c4cnc5n4[C@](C)(Cc4ccc(C#N)cc4)C(=O)N5c4cc(Cl)cc(Cl)c4)CC3)CC2)nc1` (stereo partly drawn) [compound 27], with 0.74 nM.

Take `C[C@@]1(Cc2ccc(C#N)cc2)C(=O)N(c2cc(Cl)cc(Cl)c2)c2ncc(C(=O)NC3(C(=O)NC4(c5cccc(C(=O)N6CCC[C@H]6C(N)=O)n5)CC4)CC3)n21` [compound 28]: the IC50 came to 2.5 nM. This IC50 is about 3.4-fold higher than that of the molecule before. To `C[C@@]1(Cc2ccc(C#N)cc2)C(=O)N(c2cc(Cl)cc(Cl)c2)c2ncc(C(=O)NC3(C(=O)NC4(c5ccc(C(=O)N6CCCC(CO)C6)cn5)CC4)CC3)n21` (stereo partly drawn) [compound 29] belongs 0.43 nM.

Regarding `C[C@@]1(Cc2ccc(C#N)cc2)C(=O)N(c2cc(Cl)cc(Cl)c2)c2ncc(C(=O)NC3(C(=O)NC4(c5cccc(C(=O)NCCO)n5)CC4)CC3)n21` [compound 30], the IC50 turned out to be 0.91 nM. Molecule `CNC(=O)c1ccnc(C2(NC(=O)C3(NC(=O)c4cnc5n4[C@](C)(Cc4ccc(C#N)cc4)C(=O)N5c4cc(Cl)cc(Cl)c4)CC3)CC2)c1` [compound 31] had an IC50 of 0.67 nM. The molecule `C[C@@]1(Cc2ccc(C#N)cc2)C(=O)N(c2cc(Cl)cc(Cl)c2)c2ncc(C(=O)NC3(C(=O)NC4(c5cc(C(=O)NCCc6ccccc6)ccn5)CC4)CC3)n21` [compound 32] showed an IC50 of 4 nM.

Turning to `C[C@H](NC(=O)c1ccc(C2(NC(=O)C3(NC(=O)c4cnc5n4[C@](C)(Cc4ccc(C#N)cc4)C(=O)N5c4cc(Cl)cc(Cl)c4)CC3)CC2)nc1)c1ccccc1` [compound 33], the IC50 worked out at 2.7 nM. Then `CN(CCO)C(=O)c1ccnc(C2(NC(=O)C3(NC(=O)c4cnc5n4[C@](C)(Cc4ccc(C#N)cc4)C(=O)N5c4cc(Cl)cc(Cl)c4)CC3)CC2)c1` [compound 34], with 0.7 nM.

As for `C[C@@]1(Cc2ccc(C#N)cc2)C(=O)N(c2cc(Cl)cc(Cl)c2)c2ncc(C(=O)NC3(C(=O)NC4(c5ccc(C(=O)NCCO)cn5)CC4)CC3)n21` [compound 35], the IC50 was 0.39 nM.

The molecule `C[C@@]1(Cc2ccc(C#N)cc2)C(=O)N(c2cc(Cl)cc(Cl)c2)c2ncc(C(=O)NC3(C(=O)NC4(c5ccc(C(=O)NCc6ccccn6)cn5)CC4)CC3)n21` [compound 36] came in with an IC50 of 0.25 nM. Then `CN1CCN(C(=O)c2ccc(C3(NC(=O)C4(NC(=O)c5cnc6n5[C@](C)(Cc5ccc(C#N)cc5)C(=O)N6c5cc(Cl)cc(Cl)c5)CC4)CC3)nc2)CC1` [compound 37], with 2.4 nM; and `CN(C)C(=O)c1ccnc(C2(NC(=O)C3(NC(=O)c4cnc5n4[C@](C)(Cc4ccc(C#N)cc4)C(=O)N5c4cc(Cl)cc(Cl)c4)CC3)CC2)c1` [compound 38], with 0.87 nM. To `C[C@@]1(Cc2ccc(C#N)cc2)C(=O)N(c2cc(Cl)cc(Cl)c2)c2ncc(C(=O)NC3(C(=O)NC4(c5cccc(C(=O)N6CCNCC6)n5)CC4)CC3)n21` [compound 39] belongs 3.6 nM; to `C[C@@]1(Cc2ccc(C#N)cc2)C(=O)N(c2cc(Cl)cc(Cl)c2)c2ncc(C(=O)NC3(C(=O)NC4(c5cccc(C(=O)NCCN)n5)CC4)CC3)n21` [compound 40], 1.3 nM; to `COCCNC(=O)c1ccc(C2(NC(=O)C3(NC(=O)c4cnc5n4[C@](C)(Cc4ccc(C#N)cc4)C(=O)N5c4cc(Cl)cc(Cl)c4)CC3)CC2)nc1` [compound 41], 0.14 nM.
